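48-hour exposure; five concentrations; linearly interpolated endpoints. GI50: concentration for 50% inhibition of growth.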 Activity calls are given as the source filed them. Cut-off read from the data, not from the text of the source: active = GI50 up to about 1.1 µM and inactive = higher.
How the values were obtained:
Assay in all cases: NCI anticancer screen, dose series, 48 h
[1] = test system: A498
[2] = test system: ACHN
[3] = test system: CAKI-1
[4] = test system: HCC 2998
[5] = test system: HCT-116
[6] = test system: Hs-578T
[7] = test system: MDA-MB-231
[8] = test system: MDA-N
[9] = test system: MOLT-4
[10] = test system: NCI-H226
[11] = test system: NCI-H460
[12] = test system: OVCAR-4
[13] = test system: OVCAR-5
[14] = test system: SF-268
[15] = test system: SF-539
[16] = test system: SK-OV-3
[17] = test system: SR
[18] = test system: TK-10
[19] = test system: UACC-257
[20] = test system: UACC-62

SMILES	GI50 [1]	GI50 [2]	GI50 [3]	GI50 [4]	GI50 [5]	GI50 [6]	GI50 [7]	GI50 [8]	GI50 [9]	GI50 [10]	GI50 [11]	GI50 [12]	GI50 [13]	GI50 [14]	GI50 [15]	GI50 [16]	GI50 [17]	GI50 [18]	GI50 [19]	GI50 [20]
CCOC(=O)C1(Cc2ccc3c(c2)CCC3)Cc2cc3c(cc2C1=O)CCC3 (stereo not drawn)	> 42.7 µM (inactive)	> 69.8 µM (inactive)	> 46.3 µM (inactive)	62.5 µM (inactive)	16.7 µM (inactive)	> 100 µM (inactive)	48.4 µM (inactive)	41.4 µM (inactive)	11.9 µM (inactive)	> 83 µM (inactive)	41.9 µM (inactive)	52 µM (inactive)	> 100 µM (inactive)	98.4 µM (inactive)	> 100 µM (inactive)	> 100 µM (inactive)	44.3 µM (inactive)	> 100 µM (inactive)	31.3 µM (inactive)	> 100 µM (inactive)
COC(OC)C(O)C1OC=CC1n1cnc2c(N)ncnc21 (stereo not drawn)	> 100 µM (inactive)	> 100 µM (inactive)	> 100 µM (inactive)	> 100 µM (inactive)	> 100 µM (inactive)	> 100 µM (inactive)	> 100 µM (inactive)	> 100 µM (inactive)	> 100 µM (inactive)	> 100 µM (inactive)	> 100 µM (inactive)	> 100 µM (inactive)	–	> 100 µM (inactive)	> 100 µM (inactive)	> 100 µM (inactive)	> 100 µM (inactive)	> 100 µM (inactive)	> 100 µM (inactive)	> 100 µM (inactive)
CCOC(=O)C(=CNc1ccc(F)c(F)c1)C(=O)OCC	> 100 µM (inactive)	> 100 µM (inactive)	> 100 µM (inactive)	> 100 µM (inactive)	> 100 µM (inactive)	> 100 µM (inactive)	> 100 µM (inactive)	93.1 µM (inactive)	46 µM (inactive)	> 100 µM (inactive)	> 100 µM (inactive)	95.3 µM (inactive)	> 100 µM (inactive)	> 100 µM (inactive)	> 100 µM (inactive)	> 100 µM (inactive)	39.2 µM (inactive)	> 100 µM (inactive)	> 100 µM (inactive)	–
C/C(=C(/C)c1ccc(O)cc1)c1ccc(O)cc1 [DIMETHYLSTILBESTROL]	54.6 µM (inactive)	28.8 µM (inactive)	37 µM (inactive)	> 100 µM (inactive)	83.2 µM (inactive)	24.5 µM (inactive)	> 100 µM (inactive)	31.8 µM (inactive)	45.5 µM (inactive)	36.7 µM (inactive)	49.8 µM (inactive)	> 10 µM (inactive)	> 100 µM (inactive)	> 100 µM (inactive)	32.3 µM (inactive)	> 100 µM (inactive)	40.1 µM (inactive)	89.5 µM (inactive)	43.4 µM (inactive)	23.7 µM (inactive)
C=C[C@@]1(C)CC(=O)[C@]2(O)[C@@]3(C)[C@@H](O)CCC(C)(C)[C@@H]3[C@H](O)[C@@H](OC(C)=O)[C@@]2(C)O1	> 100 µM (inactive)	> 100 µM (inactive)	27.1 µM (inactive)	> 100 µM (inactive)	> 100 µM (inactive)	70.1 µM (inactive)	6.18 µM (inactive)	> 100 µM (inactive)	30.2 µM (inactive)	> 100 µM (inactive)	> 100 µM (inactive)	> 100 µM (inactive)	72.6 µM (inactive)	> 100 µM (inactive)	> 100 µM (inactive)	95.1 µM (inactive)	> 100 µM (inactive)	> 100 µM (inactive)	> 100 µM (inactive)	> 100 µM (inactive)
CC(=O)Nc1ccc2c3c(cc(O)c2c1)N(C(=O)CCCCC(=O)N1CC(CCl)c2c1cc(O)c1cc(NC(C)=O)ccc21)CC3CCl (stereo not drawn)	0.127 µM (active)	0.0308 µM (active)	0.745 µM (active)	0.21 µM (active)	0.125 µM (active)	0.423 µM (active)	0.29 µM (active)	0.174 µM (active)	< 0.01 µM (active)	0.0333 µM (active)	< 0.01 µM (active)	1.63 µM (inactive)	1.37 µM (inactive)	< 0.0141 µM (active)	0.0527 µM (active)	0.34 µM (active)	< 0.01 µM (active)	2.19 µM (inactive)	0.181 µM (active)	0.0154 µM (active)
CCOP(=O)(OCC)C(Nc1ccc(F)cc1)c1cccc([N+](=O)[O-])c1 (stereo not drawn)	> 100 µM (inactive)	> 100 µM (inactive)	> 100 µM (inactive)	71.6 µM (inactive)	46.8 µM (inactive)	82.8 µM (inactive)	71.9 µM (inactive)	> 100 µM (inactive)	37.2 µM (inactive)	> 100 µM (inactive)	65.9 µM (inactive)	57.4 µM (inactive)	> 100 µM (inactive)	> 100 µM (inactive)	> 100 µM (inactive)	> 100 µM (inactive)	93.5 µM (inactive)	> 100 µM (inactive)	> 100 µM (inactive)	54.8 µM (inactive)
